Tested on: vascular smooth muscle cell (SMC)
Assay: Effect on proliferation of vascular smooth muscle cell (SMC), XTT assay
Type: cell-based
Details: 1 uM compound; measured at 1, 4 and 7 days; versus non-treated control; FIG. 1
Procedure: As cells used in a cell culture, the vascular smooth muscle cell (SMC) which is a smooth muscle cell, and the human umbilical vein endothelial cell (HUVEC) which is the cell for promoting vascular re-endothelialization were purchased from Korea Cell Line Bank, respectively. The cell culture was performed by culturing the vascular smooth muscle cell (SMC) and the human umbilical vein endothelial cell (HUVEC) in Dulbecoco's modified eagle medium (DMEM) with 10% fetal bovine serum (FBS) under conditions of 37° C. and 5% CO2. […]
(§1) 5×10^4 of SMC cells cultured according to Example 2 were cultured in the 24-well cell culture plate and then treated with 1 uM of the peptide compound prepared by Example 2 (hereinafter, referred to as ‘EVR-P’). […] After the reaction, 200 ul of the culture medium was transferred from each well to a 96 well cell culture dish, and degree of color change was measured from absorbance at a 450 nm wavelength by a spectroscopy.
as §1, with “the known Everolimus (EVR)(LC Laboratories).” for “the peptide compound prepared by Example 2 (hereinafter, referred to as ‘EVR-P’).”, “to the” for “to a”

For `CO[C@H]1C[C@@H]2CC[C@@H](C)[C@@](O)(O2)C(=O)C(=O)N2CCCC[C@H]2C(=O)O[C@H]([C@H](C)C[C@@H]2CC[C@@H](OCCO)[C@H](OC)C2)CC(=O)[C@H](C)/C=C(\C)[C@@H](O)[C@@H](OC)C(=O)[C@H](C)C[C@H](C)/C=C/C=C/C=C/1C` [EVR, Everolimus], the “SMC cell proliferation (XTT, absorbance at 450 nm)” value was “cell proliferation was inhibited”.
